Results published in patent US20240025887A1, “THIENYL AND CYCLOALKYL AMINOPYRIMIDINE COMPOUNDS AS INHIBITORS OF NUAK KINASES, COMPOSITIONS AND USES THEREOF” (Ontario Institute for Cancer Research (OICR), priority 2021, published 2024).
Counter-ions that a name gives are not always drawn.

Key:
[1] = test system: MDA-MB-231 cells; assay: Tumor cell growth inhibition assay (ATPlite); format: cell-based; details: Homo sapiens, 120 h, MDA-MB-231 breast tumor cell line, 5 days
Protocol: MDA-MB-231 cells were seeded into a 384-well plate at 1,000 cells/well in 50 μl medium (Alpha-MEM containing 10% FBS, […] Normocin, Invivogen and […] Gentamycin, Invitrogen). Plates were then incubated overnight for the cells to attach. An HP D300 digital dispenser was used to dose cells with DMSO or test compounds across a 16-point range of concentrations (high dose of 10 uM to low dose of 5 nM). Plates were incubated in a humidified 5% CO2 incubator at 37° C. After 5 days, plates were removed from the incubator and equilibrated to room temperature. An equal volume of ATPlite assay reagent was then added to each well, and samples processed according to manufacturer's instructions (Perkin Elmer). Luminescent signals were then measured using an Envision plate reader equipped with a US-Luminescence detector.

[2] = biological target: T1, Aurora A (Homo sapiens, UniProt O14965); assay: Aurora A counter screen; format: biochemical; details: read-out: AUR-A (IC50)
T1 sequence (O14965 1-403): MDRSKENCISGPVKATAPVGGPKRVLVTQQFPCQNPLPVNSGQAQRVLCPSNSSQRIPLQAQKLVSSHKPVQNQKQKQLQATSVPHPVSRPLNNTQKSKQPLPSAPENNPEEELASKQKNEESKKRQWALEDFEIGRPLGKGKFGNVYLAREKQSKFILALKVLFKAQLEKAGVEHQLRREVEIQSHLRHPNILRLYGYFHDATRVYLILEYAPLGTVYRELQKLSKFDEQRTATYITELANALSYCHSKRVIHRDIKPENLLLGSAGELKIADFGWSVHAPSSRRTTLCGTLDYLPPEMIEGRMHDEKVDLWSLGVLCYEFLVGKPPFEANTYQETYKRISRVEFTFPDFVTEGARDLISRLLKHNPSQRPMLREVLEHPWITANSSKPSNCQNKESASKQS
Outline: (§1)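 Radiometric assay with full-length recombinant NUAK2 in 8 mM MOPS pH 7.0, 0.2 mM EDTA, 10 mM magnesium acetate, 300 μM peptide substrate and [33P]-ATP, 40 min at room temperature. Phosphoric acid stop, filter capture, scintillation counting. Aurora A and NUAK1 used as counter screens.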

[3] = biological target: T2, NUAK1 (Homo sapiens, UniProt O60285); assay: NUAK1 counter screen; format: biochemical
T2 sequence (O60285 1-661): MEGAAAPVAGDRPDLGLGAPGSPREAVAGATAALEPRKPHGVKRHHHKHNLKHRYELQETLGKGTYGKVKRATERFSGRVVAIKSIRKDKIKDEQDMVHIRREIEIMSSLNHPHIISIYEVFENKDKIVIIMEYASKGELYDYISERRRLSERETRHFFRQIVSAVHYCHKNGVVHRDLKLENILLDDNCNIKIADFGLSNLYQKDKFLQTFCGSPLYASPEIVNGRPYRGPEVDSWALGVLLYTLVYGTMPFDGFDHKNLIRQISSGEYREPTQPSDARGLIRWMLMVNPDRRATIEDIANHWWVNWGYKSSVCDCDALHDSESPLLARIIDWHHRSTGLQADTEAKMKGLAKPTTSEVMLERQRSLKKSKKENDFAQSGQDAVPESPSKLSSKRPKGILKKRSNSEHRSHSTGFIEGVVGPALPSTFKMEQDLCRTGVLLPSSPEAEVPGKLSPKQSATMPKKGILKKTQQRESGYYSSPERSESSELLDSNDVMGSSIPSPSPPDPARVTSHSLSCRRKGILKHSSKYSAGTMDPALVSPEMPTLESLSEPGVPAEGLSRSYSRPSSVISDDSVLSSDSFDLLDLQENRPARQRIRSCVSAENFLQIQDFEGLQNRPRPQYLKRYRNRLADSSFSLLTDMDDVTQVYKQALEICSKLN
Outline: as §1

[4] = biological target: T3, NUAK2 (h) (Homo sapiens, UniProt Q9H093); assay: NUAK2 enzymatic assay (radiometric, Eurofins); format: biochemical; details: for IC50: radiometric, full-length recombinant enzyme
T3 construct: This assay was done radiometrically using full-length, recombinant enzyme; purchased Eurofins
T3 sequence (Q9H093 1-628): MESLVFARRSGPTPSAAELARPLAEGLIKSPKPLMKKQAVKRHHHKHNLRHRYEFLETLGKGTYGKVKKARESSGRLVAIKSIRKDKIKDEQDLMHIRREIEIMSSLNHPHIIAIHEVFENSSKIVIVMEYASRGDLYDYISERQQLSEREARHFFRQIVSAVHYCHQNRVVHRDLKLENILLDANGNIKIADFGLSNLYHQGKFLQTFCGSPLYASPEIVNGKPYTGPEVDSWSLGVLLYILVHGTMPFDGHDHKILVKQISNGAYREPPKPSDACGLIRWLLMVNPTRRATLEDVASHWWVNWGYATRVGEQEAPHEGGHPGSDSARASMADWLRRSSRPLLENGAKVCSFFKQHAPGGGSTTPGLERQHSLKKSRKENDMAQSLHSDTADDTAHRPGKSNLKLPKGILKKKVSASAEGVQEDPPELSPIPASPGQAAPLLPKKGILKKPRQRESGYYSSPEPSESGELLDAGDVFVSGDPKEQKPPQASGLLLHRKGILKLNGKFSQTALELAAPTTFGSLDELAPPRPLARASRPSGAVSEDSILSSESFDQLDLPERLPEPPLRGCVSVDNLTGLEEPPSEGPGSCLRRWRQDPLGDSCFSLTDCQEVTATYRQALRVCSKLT
Outline: as §1

SMILES	IC50 [1] [nM]	IC50 [2] [nM]	IC50 [3] [nM]	IC50 [4] [nM]	AUR-A (IC50, nM)/NUAK2 (IC50, nM) ([4]; NUAK2 selectivity over Aurora-A, ratio of IC50s)
CN1CCCN(C2CCN(c3ccc(Nc4ncc(C(F)(F)F)c(Nc5ccsc5C(N)=O)n4)c(OC(F)F)c3)CC2)CC1 [Compound I-75, 3-((2-((2-(difluoromethoxy)-4-(4-(4-methyl-1,4-diazepan-1-yl)piperidin-1-yl)phenyl)amino)-5-(trifluoromethyl)pyrimidin-4-yl)amino)thiophene-2-carboxamide]	120	101 to 1000	11 to 100	0.1 to 10	–
CN1C2CCC1CN(c1ccc(Nc3ncc(Cl)c(Nc4ccsc4C(N)=O)n3)c(OC(F)F)c1)C2 [Compound I-30, 3-((5-chloro-2-((2-(difluoromethoxy)-4-(8-methyl-3,8-diazabicyclo[3.2.1]octan-3-yl)phenyl)amino)pyrimidin-4-yl)amino)thiophene-2-carboxamide]	144	101 to 1000	11 to 100	0.1 to 10	–
CC(C)N1CCN(C2CCN(c3ccc(Nc4ncc(C(F)(F)F)c(Nc5ccsc5C(N)=O)n4)c(OC(F)F)c3)CC2)CC1 [Compound I-78, 3-((2-((2-(difluoromethoxy)-4-(4-(4-isopropylpiperazin-1-yl)piperidin-1-yl)phenyl)amino)-5-(trifluoromethyl)pyrimidin-4-yl)amino)thiophene-2-carboxamide]	96	101 to 1000	11 to 100	11 to 100	–
CN1CCN(c2ccc(Nc3ncc(C#N)c(Nc4ccsc4C(N)=O)n3)c(OC(F)F)c2)CC1 [Compound I-38, 3-((5-cyano-2-((2-(difluoromethoxy)-4-(4-methylpiperazin-1-yl)phenyl)amino)pyrimidin-4-yl)amino)thiophene-2-carboxamide]	120	101 to 1000	11 to 100	0.1 to 10	–
CN1CCN(c2ccc(Nc3ncc(Cl)c(N[C@@H]4CCC[C@@H]4C(N)=O)n3)c(C(F)(F)F)c2)CC1 [Compound I-84, (1S,2R)-2-((5-chloro-2-((4-(4-methylpiperazin-1-yl)-2-(trifluoromethyl)phenyl)amino)pyrimidin-4-yl)amino)cyclopentane-1-carboxamide]	–	> 1000	101 to 1000	11 to 100	–
CN1CCN(c2ccc(Nc3ncc(Cl)c(N[C@@H]4CCCC[C@@H]4C(N)=O)n3)c(C(F)(F)F)c2)CC1 [Compound I-85, (1S,2R)-2-((5-chloro-2-((4-(4-methylpiperazin-1-yl)-2-(trifluoromethyl)phenyl)amino)pyrimidin-4-yl)amino)cyclohexane-1-carboxamide]	–	> 1000	101 to 1000	11 to 100	–
CN1C2CCC1CN(c1ccc(Nc3ncc(Cl)c(Nc4sccc4C(N)=O)n3)c(OC(F)F)c1)C2 [Compound I-32, 2-((5-chloro-2-((2-(difluoromethoxy)-4-(8-methyl-3,8-diazabicyclo[3.2.1]octan-3-yl)phenyl)amino)pyrimidin-4-yl)amino)thiophene-3-carboxamide]	–	101 to 1000	11 to 100	11 to 100	–
COc1cc(N2CCN(C)CC2)ccc1Nc1ncc(Cl)c(Nc2ccsc2C(N)=O)n1 [Compound C-1, reference compound]	–	11 to 100	0.1 to 10	0.1 to 10	6
CN(C)[C@H]1CCN(c2ccc(Nc3ncc(Cl)c(Nc4ccsc4C(N)=O)n3)c(OC(F)F)c2)C1 [Compound I-56, (S)-3-((5-chloro-2-((2-(difluoromethoxy)-4-(3-(dimethylamino)pyrrolidin-1-yl)phenyl)amino)pyrimidin-4-yl)amino)thiophene-2-carboxamide]	–	101 to 1000	0.1 to 10	11 to 100	–
C[C@@H]1CN(c2ccc(Nc3ncc(Cl)c(Nc4ccsc4C(N)=O)n3)c(OC(F)F)c2)C[C@H](C)N1C [Compound I-8, 3-((5-chloro-2-((2-(difluoromethoxy)-4-((3R,5S)-3,4,5-trimethylpiperazin-1-yl)phenyl)amino)pyrimidin-4-yl)amino)thiophene-2-carboxamide]	–	11 to 100	0.1 to 10	0.1 to 10	–
CC(C)N1CCN(c2ccc(Nc3ncc(Cl)c(Nc4ccsc4C(N)=O)n3)c(OC(F)F)c2)CC1 [Compound I-12, 3-((5-chloro-2-((2-(difluoromethoxy)-4-(4-isopropylpiperazin-1-yl)phenyl)amino)pyrimidin-4-yl)amino)thiophene-2-carboxamide hydrochloride]	–	11 to 100	0.1 to 10	0.1 to 10	–
CC(C)(C)N1CCN(C2CCN(c3ccc(Nc4ncc(C(F)(F)F)c(Nc5ccsc5C(N)=O)n4)c(OC(F)F)c3)CC2)CC1 [Compound I-79, 3-((2-((4-(4-(4-(tert-butyl)piperazin-1-yl)piperidin-1-yl)-2-(difluoromethoxy)phenyl)amino)-5-(trifluoromethyl)pyrimidin-4-yl)amino)thiophene-2-carboxamide]	–	101 to 1000	11 to 100	11 to 100	–
CN1C[C@@H]2CN(c3ccc(Nc4ncc(Cl)c(Nc5ccsc5C(N)=O)n4)c(OC(F)F)c3)C[C@@H]2C1 [Compound I-57, 3-((5-chloro-2-((2-(difluoromethoxy)-4-((3aR,6aS)-5-methylhexahydropyrrolo[3,4-c]pyrrol-2(1H)-yl)phenyl)amino)pyrimidin-4-yl)amino)thiophene-2-carboxamide]	–	101 to 1000	0.1 to 10	0.1 to 10	–
CC(C)(C)N1CCN(c2ccc(Nc3ncc(Cl)c(Nc4ccsc4C(N)=O)n3)c(OC(F)F)c2)CC1 [Compound I-20, 3-((2-((4-(4-(tert-butyl)piperazin-1-yl)-2-(difluoromethoxy)phenyl)amino)-5-chloropyrimidin-4-yl)amino)thiophene-2-carboxamide]	–	101 to 1000	0.1 to 10	0.1 to 10	–
CCN1CCN(C2CCN(c3ccc(Nc4ncc(Cl)c(Nc5ccsc5C(N)=O)n4)c(OC(F)F)c3)CC2)CC1 [Compound I-61, 3-((5-chloro-2-((2-(difluoromethoxy)-4-(4-(4-ethylpiperazin-1-yl)piperidin-1-yl)phenyl)amino)pyrimidin-4-yl)amino)thiophene-2-carboxamide]	–	11 to 100	11 to 100	11 to 100	–
NC(=O)c1sccc1Nc1nc(Nc2ccc(N3CCOCC3)cc2OC(F)F)ncc1C(F)(F)F [Compound I-39, 3-((2-((2-(difluoromethoxy)-4-morpholinophenyl)amino)-5-(trifluoromethyl)pyrimidin-4-yl)amino)thiophene-2-carboxamide]	–	101 to 1000	11 to 100	11 to 100	–
